Measured values published in patent US20250353841A1 (BIOGEN MA INC., priority 2022, published 2025).

Tested on: mutant Huntington (HTT) protein
Experiment: HTT Mutant HTRF iPSC assay (mHTT protein lowering)
Format: cell-based
Settings: human iPSC derived from a HTT patient with a poly-Q49 mutation

SMILES	IC50
Fc1cc(-c2ccn3nc(Br)cc3n2)cn2cc(C3CCNCC3)nc12 [Compound 199, 2-bromo-5-(8-fluoro-2-(piperidin-4-yl)imidazo[1,2-a]pyridin-6-yl)pyrazolo[1,5-a]pyrimidine]	0.1 to 1 µM
Cc1cn2cc(-c3cc(F)c4nc(C5CCNCC5)cn4c3)nc(C)c2n1 [Compound 125, 6-(8-fluoro-2-(piperidin-4-yl)imidazo[1,2-a]pyridin-6-yl)-2,8-dimethylimidazo[1,2-a]pyrazine]	0.1 to 1 µM
Cc1cn2nc(-c3cc(F)c4nc(NC5CCN(C6CCOC6)CC5)oc4c3)cc(C)c2n1 (centres unmarked) [Compound 481, 6-(2,8-dimethylimidazo[1,2-b]pyridazin-6-yl)-4-fluoro-N-(1-(tetrahydrofuran-3-yl)piperidin-4-yl)benzo[d]oxazol-2-amine]	< 0.1 µM
Cc1cn2nc(-c3cc(F)c4nc(C[C@H]5C[C@H](N)C5)nn4c3)cc(C)c2n1 [Compound 449, (1r,3r)-3-((6-(2,8-dimethylimidazo[1,2-b]pyridazin-6-yl)-8-fluoro-[1,2,4]triazolo[1,5-a]pyridin-2-yl)methyl)cyclobutan-1-amine]	0.1 to 1 µM
Cc1cn2nc(-c3cc(F)c4nc(NC(=O)C5CCN(C)CC5)nn4c3)cc(C)c2n1 [Compound 317, N-(6-(2,8-dimethylimidazo[1,2-b]pyridazin-6-yl)-8-fluoro-[1,2,4]triazolo[1,5-a]pyridin-2-yl)-1-methylpiperidine-4-carboxamide]	0.1 to 1 µM
Cc1cn2cc(-c3cc(F)c4nn(C5CCNCC5)cc4c3)cc(F)c2n1 [Compound 136, 7-fluoro-5-(8-fluoro-2-methylimidazo[1,2-a]pyridin-6-yl)-2-(piperidin-4-yl)-2H-indazole]	0.1 to 1 µM
Cc1cn2nc(-c3cc(F)c4nc(C(=O)NC5CCNC6(CC6)C5)cn4c3)cc(C)c2n1 (single isomer, unassigned) [Compound 348]	0.1 to 1 µM
Cc1cn2nc(-c3cc(F)c4nc([C@H]5C[C@@]6(CCNC6)C5)cn4c3)cc(C)c2n1 [Compound 193, 6-(8-fluoro-2-((2r,4r)-6-azaspiro[3.4]octan-2-yl)imidazo[1,2-a]pyridin-6-yl)-2,8-dimethylimidazo[1,2-b]pyridazine]	< 0.1 µM
Cc1nc2ccc(-c3cc(F)c4nc(C5CCNCC5)cn4c3)nn2n1 [Compound 577, 6-(8-fluoro-2-(piperidin-4-yl)imidazo[1,2-a]pyridin-6-yl)-2-methyl-[1,2,4]triazolo[1,5-b]pyridazine]	< 0.1 µM
CCc1nc(C)cn2cc(-c3cc(F)c4nn(C5CCNCC5)nc4c3)cc12 [Compound 379, 6-(1-ethyl-3-methylpyrrolo[1,2-a]pyrazin-7-yl)-4-fluoro-2-(piperidin-4-yl)-2H-benzo[d][1,2,3]triazole]	0.1 to 1 µM
Cc1cn2nc(-c3cc(F)c4nc([C@H]5[C@@H]6CNC[C@@H]65)oc4c3)cc(C)c2n1 [Compound 455, 2-((1R,5S,6r)-3-azabicyclo[3.1.0]hexan-6-yl)-6-(2,8-dimethylimidazo[1,2-b]pyridazin-6-yl)-4-fluorobenzo[d]oxazole]	0.1 to 1 µM
COc1cc(-c2cc(F)c3nn(C)cc3c2)cc2cn(C3CCNCC3)nc12 [Compound 543, 7-fluoro-7′-methoxy-2-methyl-2′-(piperidin-4-yl)-2H,2′H-5,5′-biindazole]	1 to 9 µM
Cc1cn2nc(-c3ccc4nc([C@H]5[C@@H]6CN(C)C[C@@H]65)cn4c3)cc(C)c2n1 [Compound 554, 2,8-dimethyl-6-(2-((1R,5S,6r)-3-methyl-3-azabicyclo[3.1.0]hexan-6-yl)imidazo[1,2-a]pyridin-6-yl)imidazo[1,2-b]pyridazine]	0.1 to 1 µM
Cc1cn2nc(-c3cc(F)c4nn(C5CCNCC5)nc4c3)cc2c(C)n1 [Compound 388, 6-(4,6-dimethylpyrazolo[1,5-a]pyrazin-2-yl)-4-fluoro-2-(piperidin-4-yl)-2H-benzo[d][1,2,3]triazole]	0.1 to 1 µM
Cc1cn2nc(-c3cc(F)c4nc(NC(=O)C5(F)CNC5)cn4c3)cc(C)c2n1 [Compound 270, N-(6-(2,8-dimethylimidazo[1,2-b]pyridazin-6-yl)-8-fluoroimidazo[1,2-a]pyridin-2-yl)-3-fluoroazetidine-3-carboxamide]	< 0.1 µM
Cc1cn2nc(-c3ccc4nc(C5CCNCC5)oc4c3)cc(C)c2n1 [Compound 550, 6-(2,8-dimethylimidazo[1,2-b]pyridazin-6-yl)-2-(4-piperidyl)-1,3-benzoxazole]	0.1 to 1 µM
Cc1cn2nc(-c3cc(F)c4nn(C5CCNC(C)(C)C5)nc4c3)cc(C)c2n1 (racemic) [Compound 394, 6-(2,8-dimethylimidazo[1,2-b]pyridazin-6-yl)-2-(2,2-dimethylpiperidin-4-yl)-4-fluoro-2H-benzo[d][1,2,3]triazole]	0.1 to 1 µM
Cc1cn2nc(-c3cc(F)c4[nH]c(C5C6CNCC65)nc4c3)cc(C)c2n1 (centres unmarked) [Compound 429, 6-(2-(3-azabicyclo[3.1.0]hexan-6-yl)-7-fluoro-1H-benzo[d]imidazol-5-yl)-2,8-dimethylimidazo[1,2-b]pyridazine]	< 0.1 µM
Cn1cc2cc(-c3cc(F)c4nc(C5CCNCC5)cn4c3)cc(C(F)F)c2n1 [Compound 84, 7-(difluoromethyl)-5-(8-fluoro-2-(piperidin-4-yl)imidazo[1,2-a]pyridin-6-yl)-2-methyl-2H-indazole]	< 0.1 µM

SMILES	IC50
Cc1cn2nc(-c3cc(F)c4nc(C56CC(C7CNC7)(C5)C6)cn4c3)cc(C)c2n1 [Compound 184]	0.1 to 1 µM
Cn1cc2cc(-c3cc(F)c4nc(CC5CNC5)cn4c3)cc(F)c2n1 [Compound 19, 5-(2-(azetidin-3-ylmethyl)-8-fluoroimidazo[1,2-a]pyridin-6-yl)-7-fluoro-2-methyl-2H-indazole]	1 to 9 µM
Cc1cn2nc(-c3cc(F)c4nc(NC(=O)C5CC6(CNC6)C5)cn4c3)cc(C)c2n1 [Compound 276]	0.1 to 1 µM
Cc1cn2nc(-c3cc(F)c4nc(NC(=O)C5CN(CC(F)F)C5)cn4c3)cc(C)c2n1 [Compound 267, 1-(2,2-difluoroethyl)-N-(6-(2,8-dimethylimidazo[1,2-b]pyridazin-6-yl)-8-fluoroimidazo[1,2-a]pyridin-2-yl)azetidine-3-carboxamide]	0.1 to 1 µM
Cc1cn2nc(-c3cc(F)c4nc(NC(=O)C56CCCN(CC5)C6)cn4c3)cc(C)c2n1 (racemic) [Compound 279]	< 0.1 µM
Cc1cn2nc(-c3cc(F)c4nc(NC(=O)C5CCCN(C)C5)nn4c3)cc(C)c2n1 (single isomer, unassigned) [Compound 326]	0.1 to 1 µM
Cc1cn2cc(-c3cc(F)c4nc(C5CCNCC5)oc4c3)cc(F)c2n1 [Compound 156, 4-fluoro-6-(8-fluoro-2-methylimidazo[1,2-a]pyridin-6-yl)-2-(piperidin-4-yl)benzo[d]oxazole]	1 to 9 µM
Fc1cc(-c2cc3ccc(Cl)cc3o2)cn2cc(C3CCNCC3)nc12 [Compound 39, 6-(6-chlorobenzofuran-2-yl)-8-fluoro-2-(piperidin-4-yl)imidazo[1,2-a]pyridine]	1 to 9 µM
COCCN1CCC(c2nc3c(F)cc(-c4cc(C)c5nc(C)cn5n4)cn3n2)CC1 [Compound 439, 6-(2,8-dimethylimidazo[1,2-b]pyridazin-6-yl)-8-fluoro-2-[1-(2-methoxyethyl)-4-piperidyl]-[1,2,4]triazolo[1,5-a]pyridine]	0.1 to 1 µM
Cc1cn2cc(-c3cc(F)c4[nH]c(C5CCNCC5)nc4c3)cc(F)c2n1 [Compound 143, 7-fluoro-5-(8-fluoro-2-methylimidazo[1,2-a]pyridin-6-yl)-2-(piperidin-4-yl)-1H-benzo[d]imidazole]	1 to 9 µM
Cc1cn2cc(-c3cc(F)c4nc(C5CCN(C)CC5)cn4c3)cc(C)c2n1 [Compound 9, 8-fluoro-2′,8′-dimethyl-2-(1-methylpiperidin-4-yl)-6,6′-biimidazo[1,2-a]pyridine]	1 to 9 µM
COc1cc(-c2cc(F)c3nn(C4CCN(C)CC4)cc3c2)nn2nc(C)nc12 [Compound 358, 6-(7-fluoro-2-(1-methylpiperidin-4-yl)-2H-indazol-5-yl)-8-methoxy-2-methyl-[1,2,4]triazolo[1,5-b]pyridazine]	< 0.1 µM
Cc1cn2nc(-c3cc(F)c4nc(N5CCC(N6CCCC6)C5)oc4c3)cc(C)c2n1 (centres unmarked) [Compound 476, 2-([1,3′-bipyrrolidin]-1′-yl)-6-(2,8-dimethylimidazo[1,2-b]pyridazin-6-yl)-4-fluorobenzo[d]oxazole]	0.1 to 1 µM
Cc1cn2nc(-c3cc(F)c4nc(CC5CCN(C)CC5)nn4c3)cc(C)c2n1 [Compound 448, 6-(2,8-dimethylimidazo[1,2-b]pyridazin-6-yl)-8-fluoro-2-((1-methylpiperidin-4-yl)methyl)-[1,2,4]triazolo[1,5-a]pyridine]	0.1 to 1 µM
Cc1cn2nc(-c3cc(F)c4nc([C@@H]5C6CCN(C)CC65)cn4c3)cc(C)c2n1 (stereo partly drawn) [Compound 231, 6-(8-fluoro-2-((7R)-3-methyl-3-azabicyclo[4.1.0]heptan-7-yl)imidazo[1,2-a]pyridin-6-yl)-2,8-dimethylimidazo[1,2-b]pyridazine]	< 0.1 µM
[2H]C1(N2CCC(c3cn4cc(-c5cc(C)c6nc(C)cn6n5)cc(F)c4n3)CC2)CC1 [Compound 207, 6-(2-(1-(cyclopropyl-1-d)piperidin-4-yl)-8-fluoroimidazo[1,2-a]pyridin-6-yl)-2,8-dimethylimidazo[1,2-b]pyridazine]	< 0.1 µM
Cc1cn2nc(-c3cc(F)c4nc(N5CCC(CN(C)C)C5)oc4c3)cc(C)c2n1 (centres unmarked) [Compound 491, 1-(1-(6-(2,8-dimethylimidazo[1,2-b]pyridazin-6-yl)-4-fluorobenzo[d]oxazol-2-yl)pyrrolidin-3-yl)-N,N-dimethylmethanamine]	0.1 to 1 µM
Cc1cn2nc(-c3cc(F)c4nc(NC(=O)C5CCCC(N(C)C)C5)cn4c3)cc(C)c2n1 (racemic) [Compound 247, 3-(dimethylamino)-N-(6-(2,8-dimethylimidazo[1,2-b]pyridazin-6-yl)-8-fluoroimidazo[1,2-a]pyridin-2-yl)cyclohexane-1-carboxamide]	0.1 to 1 µM
CN[C@H]1CCC[C@@H](c2cn3cc(-c4cc(F)c5nn(C)cc5c4)cc(F)c3n2)C1 (stereo in doubt) [Compound 163, rel-(1R,3S)-3-(8-fluoro-6-(7-fluoro-2-methyl-2H-indazol-5-yl)imidazo[1,2-a]pyridin-2-yl)-N-methylcyclohexan-1-amine]	0.1 to 1 µM
